US4489091A, “Antilipemic and anti-inflammatory compositions containing sulfonate derivatives” (Taiho Pharmaceutical Company Limited, priority 1980, dated 1984)
Like-named read-outs stand apart in the source and are kept apart here.

Tests used:
[1] = test system: cholesterol; assay: Antilipemic effect: percent total cholesterol inhibition in plasma of rats given an olive oil-cholesterol mixture; assay type: in vivo, male Wistar rats; details: for inhibition in vivo at 100 mg/kg: read-out: Anti-lipemic effect, CS (percent cholesterol inhibition); for Anti-lipemic effect, CS (percent cholesterol inhibition), asterisked: oral 200 mg/kg (asterisked values)
Procedure: (§1) The above compounds of this invention are tested by the following methods for antilipemic effect and acute toxicity. In the column of antilipemic effect in the table, the asterisked values indicate the effect achieved by orally giving 200 mg/kg of the compounds concerned, and the unmarked values, the effect attained by orally giving 100 mg/kg. In the same column, "TG" stands for percent triglycerides inhibition and "CS" percent cholesterol inhibition.
(§2) Seven-week-old male Wistar rats weighing 200 to 220 g are used, 5 rats in each group.
(§3) Each compound of the invention (100 mg or 200 mg) is dissolved in 10 ml of an olive oil-cholesterol mixture (containing 15% of cholesterol). The mixture containing the compound is orally given to the rat with a probe at a dose of 10 ml/kg. Two or 8 hours thereafter, 6 ml of whole blood is withdrawn from the descending aorta of the rat under ether anesthesia with a syringe containing heparin. The blood is centrifuged at 5° C. and 3000 r.p.m. to obtain the plasma. The plasma collected after the lapse of 2 hours is used for determining the triglycerides content, and the plasma obtained 8 hours later for determining the total cholesterol content, using a triglycerides measuring kit (trade mark "Triglycerides-B Test Wako," product of Wako Junyaku Co., Ltd., Japan) and a total cholesterol measuring kit (trade mark "Cholesterol Test Wako," product of the same), respectively. The olive oil-cholesterol mixture containing no compound is similarly given to a control group, while no treatment is conducted for a normal group. The triglycerides and total cholesterol contents in the plasma are also determined for these groups in the same manner as is the case with the test groups.
(§4) The present hyperlipidemia inhibition achieved by the present compound is given by [formula] in which A is the triglycerides (cholesterol) content of the control group, B is the triglycerides (cholesterol) content of the normal group, and C is the triglycerides (cholesterol) content of the group to which the present compound is given.

[2] = test system: triglycerides; assay: Antilipemic effect: percent triglycerides inhibition in plasma of rats given an olive oil-cholesterol mixture; assay type: in vivo, male Wistar rats; details: for inhibition in vivo at 100 mg/kg: read-out: Anti-lipemic effect, TG (percent triglycerides inhibition); for inhibition in vivo at 200 mg/kg: oral 200 mg/kg (asterisked values), read-out: Anti-lipemic effect, TG (percent triglycerides inhibition), asterisked
Procedure: as §1, §2, §3, §4

[3] = Acute toxicity; details: rat, in vivo
Source text: Six-week-old male Wistar rats weighing 180 to 200 g are used, 5 rats in each group. Each compound of the invention is suspended in a 30% aqueous solution of polyethylene glycol 6000 and orally given to the rat at the dosage shown in Table 2. The animals are checked for poisoning, body weight and survival to determine the LD50 value.

[4] = oral 100 mg/kg, plasma 8 hours after dosing, Wistar rat
[5] = oral 100 mg/kg, plasma 2 hours after dosing, Wistar rat
[6] = oral, six-week-old male Wistar rats, suspended in 30% aqueous polyethylene glycol 6000, read-out: LD50
[7] = plasma 8 hours after dosing, Wistar rat
[8] = plasma 2 hours after dosing, Wistar rat

SMILES | inhibition in vivo at 100 mg/kg [1, 4] [%] | inhibition in vivo at 100 mg/kg [2, 5] [%] | LD50 ([3]; po) [mg/kg] | LD50 [3, 6] [mg/kg] | Anti-lipemic effect, CS (percent cholesterol inhibition), asterisked [1, 7] [%] | inhibition in vivo at 200 mg/kg [2, 8] [%] | inhibition in vivo at 100 mg/kg ([1]; Rattus norvegicus, po, 8 h) [%] | inhibition in vivo at 100 mg/kg ([2]; Rattus norvegicus, po, 2 h) [%]
CCCC(C)C(=O)COS(=O)(=O)c1ccc(C)cc1 (stereo not drawn) [Compound 122] | 51 | 65 | > 3000 |  |  |  |  | 
CCC(CC)C(=O)COS(=O)(=O)c1c(C)cc(C)cc1C [Compound 148] | 80 | 96 | > 3000 |  |  |  |  | 
C=CCCC(=O)COS(=O)(=O)c1ccc(OC)cc1 [Compound 41] | 61 | 82 | > 2000 |  |  |  |  | 
CCCC(=O)COS(=O)(=O)c1ccccc1 [Compound 6, 2-oxopentylbenzene sulfonate] | 53 | 90 |  | > 1000 |  |  |  | 
CCCC(C)C(=O)COS(=O)(=O)c1ccc(OCC)cc1 (stereo not drawn) [Compound 133] | 91 | 111 | > 4500 |  |  |  |  | 
CCCCC(CCC)C(=O)COS(=O)(=O)c1ccc(OCC)cc1 (stereo not drawn) [Compound 140] | 61 | 67 | > 3000 |  |  |  |  | 
CCCCC(CC)C(=O)COS(=O)(=O)c1c(C)cc(C)c(C)c1C (stereo not drawn) [Compound 100] |  |  | > 4000 |  | 42 | 66 |  | 
CCCCC(=O)COS(=O)(=O)c1ccc(C)cc1 [Compound 17] | 33 | 61 | > 2000 |  |  |  |  | 
CCCC(=O)COS(=O)(=O)c1ccc(C)c(C)c1C [Compound 117] | 71 | 70 | > 2000 |  |  |  |  | 
CCC(C)CCC(=O)COS(=O)(=O)c1c(C)cc(C)cc1C (stereo not drawn) [Compound 159] | 51 | 49 | > 4000 |  |  |  |  | 
CCCCC(C)C(=O)COS(=O)(=O)c1ccc(OCC)cc1 (stereo not drawn) [Compound 139] | 87 | 84 | > 3000 |  |  |  |  | 
CCCCC(C)C(=O)COS(=O)(=O)c1ccc(C)cc1 (stereo not drawn) [Compound 127] | 67 | 92 | > 3000 |  |  |  |  | 
COc1ccc(S(=O)(=O)OCC(=O)CCC(C)C)cc1 [Compound 40] | 70 | 72 | > 2000 |  |  |  |  | 
CCCCCC(=O)COS(=O)(=O)c1c(C)cc(C)cc1C [Compound 75] | 60 | 53 | > 3000 |  |  |  |  | 
CCCCCCC(=O)COS(=O)(=O)c1c(C)cc(C)cc1C [Compound 76] | 62 | 55 | > 4000 |  |  |  |  | 
CCC(CC)C(=O)COS(=O)(=O)c1ccc(C)cc1 [Compound 121] | 66 | 63 | > 3000 |  |  |  |  | 
CCCC(=O)COS(=O)(=O)c1ccc(Cl)cc1 [Compound 64] | 56 | 82 | > 1000 |  |  |  |  | 
CCCC(CCC)C(=O)COS(=O)(=O)c1c(C)cc(C)cc1C [Compound 152] | 69 | 78 | > 4000 |  |  |  |  | 
CCCCC(CCC)C(=O)COS(=O)(=O)c1ccc(C)cc1 (stereo not drawn) [Compound 128] | 51 | 62 | > 3000 |  |  |  |  | 
C=CCCC(=O)COS(=O)(=O)c1ccc(OCC)cc1 [Compound 52] | 97 | 95 | > 2000 |  |  |  |  | 
CC(C)CCC(=O)COS(=O)(=O)c1ccc(Cl)cc1 [Compound 70] | 47 | 82 | > 2000 |  |  |  |  | 

SMILES | inhibition in vivo at 100 mg/kg [1, 4] [%] | inhibition in vivo at 100 mg/kg [2, 5] [%] | LD50 ([3]; po) [mg/kg] | LD50 [3, 6] [mg/kg] | Anti-lipemic effect, CS (percent cholesterol inhibition), asterisked [1, 7] [%] | inhibition in vivo at 200 mg/kg [2, 8] [%] | inhibition in vivo at 100 mg/kg ([1]; Rattus norvegicus, po, 8 h) [%] | inhibition in vivo at 100 mg/kg ([2]; Rattus norvegicus, po, 2 h) [%]
CCCC(=O)COS(=O)(=O)c1c(CC)cc(CC)cc1CC [Compound 114] | 76 | 87 | > 3000 |  |  |  |  | 
CCCCCC(=O)COS(=O)(=O)c1ccc(OC)cc1 [Compound 36] | 79 | 78 | > 2000 |  |  |  |  | 
Cc1cc(C)c(S(=O)(=O)OCC(=O)CCCC(C)C)c(C)c1 [Compound 161] | 56 | 51 | > 3000 |  |  |  |  | 
CCCCC(=O)COS(=O)(=O)c1c(C)cc(C)cc1C [Compound 74] | 87 | 77 | > 3000 |  |  |  |  | 
CCC(C)C(=O)COS(=O)(=O)c1c(C)cc(C)c(C)c1C (stereo not drawn) [Compound 99] | 78 | 72 | > 3000 |  |  |  |  | 
CCOc1ccc(S(=O)(=O)OCC(=O)CC(C)C)cc1 [Compound 132] | 90 | 87 | > 2000 |  |  |  |  | 
CCOc1ccc(S(=O)(=O)OCC(=O)C(CC)CC)cc1 [Compound 131] | 97 | 110 | > 2000 |  |  |  |  | 
CC(C)(C)CC(=O)COS(=O)(=O)c1ccccc1 [Compound 11] | 53 | 80 | > 3000 |  |  |  |  | 
CCCCC(C)C(=O)COS(=O)(=O)c1c(C)cc(C)cc1C (stereo not drawn) [Compound 155] | 71 | 67 | > 3000 |  |  |  |  | 
CCCCC(=O)COS(=O)(=O)c1ccccc1C [Compound 30] | 36 | 70 | > 1500 |  |  |  |  | 
CCCCC(CCC)C(=O)COS(=O)(=O)c1c(C)cc(C)cc1C (stereo not drawn) [Compound 156] | 62 | 58 | 4000 |  |  |  |  | 
CCCCC(CC)C(=O)COS(=O)(=O)c1ccc(C)cc1 (stereo not drawn) [Compound 26] | 72 | 85 | > 4000 |  |  |  |  | 
CCCCCCC(=O)COS(=O)(=O)c1c(C)cc(C)c(C)c1C [Compound 97] | 47 | 55 | > 3000 |  |  |  |  | 
CCCC(=O)COS(=O)(=O)c1ccccc1C [Compound 29, 2-oxopentyl-o-toluene sulfonate] | 30 | 73 |  | > 1500 |  |  |  | 
CCCCC(=O)COS(=O)(=O)c1ccc(OCC)cc1 [Compound 44] | 90 | 99 | > 2000 |  |  |  |  | 
CCC(=O)COS(=O)(=O)c1ccc(C)cc1 [Compound 15] | 41 | 40 | > 1500 |  |  |  |  | 
CCCCC(=O)COS(=O)(=O)c1ccc(Cl)cc1 [Compound 65] | 49 | 87 | > 1000 |  |  |  |  | 
CCC(C)CC(=O)COS(=O)(=O)c1ccc(C)cc1 (stereo not drawn) [Compound 125] | 44 | 68 | > 3000 |  |  |  |  | 
CCCCC(CCCC)C(=O)COS(=O)(=O)c1ccc(OCC)cc1 [Compound 141] | 66 | 68 | > 3000 |  |  |  |  | 
CCCCOc1ccc(S(=O)(=O)OCC(=O)CCC)cc1 [Compound 53] |  |  |  | > 2000 |  |  | 42 | 61
CCCCCCCCC(=O)COS(=O)(=O)c1ccc(C)cc1 [Compound 21] |  |  | > 3000 |  | 43 | 70 |  | 
